In brackets after ≈: the same amount, converted by molar mass. Read-outs that look alike come from different tables or passages of the source.
Assays:
[1] = test system: aspergillus fumigatus (ATCC 13073 [strain: NIH 5233]); assay: In vivo anti-fungal activity, prophylactic and therapeutic treatment of infected immunocompromised neutropenic mice; parameters: species or system A/J mice; conditions: for % Inhibition versus Infected Control, GM in BALF / % Inhibition versus Infected Control, GM in serum / % Inhibition versus Infected Control, Lung Fungal Load: therapeutic treatment (days 1, 2 and 3); for % Inhibition versus Infected Controls, GM in BALF / % Inhibition versus Infected Controls, GM in serum / % Inhibition versus Infected Controls, Lung Fungal Load: prophylactic treatment (days 0, 1, 2 and 3)
[2] = test system: Aspergillus fumigatus NCPF7100; assay: Broth microdilution assay (modified EUCAST); type: cell-based; conditions: Aspergillus fumigatus, NCPF7100, read-out: MIC75 against Aspergillus fumigatus isolate NCPF7100
[3] = Cell viability: resazurin assay; type: cell-based, human; conditions: human, BEAS2B cells; n = 3-5
Method in brief: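 BEAS2B cells in RPMI-LHC8, exposed to compound for 1 day at 37 °C (0.5% DMSO final), then resazurin added for a further 4 h. Fluorescence (ex 545/em 590 nm) gives % viability loss vs 0.5% DMSO vehicle; CC50 from concentration-response curve.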

[4] = test system: Aspergillus fumigatus NCPF2010; assay: Broth microdilution assay (modified EUCAST); type: cell-based; conditions: Aspergillus fumigatus
Method in brief: (§1)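 Spores from 3-day Sabouraud cultures (working suspension 2 × 10^5 spores/mL) were added to an equal volume of RPMI-1640 (2 mM L-glutamine, 0.5% BSA, 2% glucose, 0.165 M MOPS, pH 7) containing compound, in quadruplicate. After 48 hr at 35 °C, OD530 gave percent inhibition. MIC50, MIC75 and MIC90 came from concentration-response curves.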

[5] = test system: Aspergillus fumigatus L98H (TR34/L98H); assay: Broth microdilution assay (modified EUCAST); type: cell-based; conditions: Aspergillus fumigatus, read-out: MIC75 against Aspergillus fumigatus isolate L98H
Method in brief: as §1

[6] = test system: Aspergillus fumigatus NCPF7099; assay: Broth microdilution assay (modified EUCAST); type: cell-based; conditions: Aspergillus fumigatus, NCPF7099, n = 3, read-out: MIC75 against Aspergillus fumigatus isolate NCPF7099
Method in brief: as §1

[7] = test system: aspergillus fumigatus infection of BEAS2B cells; assay: Aspergillus fumigatus infection of bronchial epithelial cells (GM in supernatant); type: cell-based; conditions: bronchial epithelial cells infected with Aspergillus fumigatus; read-out: MIC50 Infection of BEAS2B cells
Method in brief: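 BEAS2B cells in 10% FBS RPMI-1640 pre-treated with compound (0.5% DMSO final) for 1 hr at 35 °C, then infected with A. fumigatus conidia (0.5×10^5/ml suspension) for 24 hr at 35 °C. Galactomannan in 1:20-diluted supernatant measured by Platelia GM-EIA; IC50 from percent-inhibition concentration-response curves.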

[8] = test system: aspergillus fumigatus (ATCC 13073 [strain: NIH 5233]); assay: Survival of severely immunosuppressed neutropenic infected mice, monotherapy and combination; type: in vivo, A/J mice; conditions: Example 1 0.4 mg/mL (in); Posaconazole 1 mg/kg (po); once daily days 1-6
Method: On day 0, animals were infected intranasally with 35 µL of the spore suspension (1.67 × 10^8 spores/mL in physiological saline) of aspergillus fumigatus (ATCC 13073 [strain: NIH 5233]). Compound Example (I), prepared as a suspension in isotonic saline (0.4 mg/mL), was dosed once daily by an intra-nasal injection (35 µL/mouse) on days 1-6 after infection. Posaconazole (1 mg/kg) was given orally once daily on days 1-6 after infection. Body weight and survival were monitored daily up to day 7.

[9] = test system: Chaectomium globosum ATCC44699; assay: Fungus panel screening, CLSI broth microdilution; type: cell-based
Method: Fungus panel screening was conducted by Eurofins Panlabs Inc. The MIC and MIC50 values of the test articles were determined following the guidelines of the Clinical and Laboratory Standards Institute, broth microdilution methods for yeast (CLSI M27-A2), (CLSI, 2002) and for filamentous fungi (CLSI M38-A), (CLSI, 2008).

[10] = NCPF2010, read-out: MIC75 against Aspergillus fumigatus isolate NCPF2010

Compound	MIC [2]	CC50 at 1 day [3]	MIC [4, 10]	MIC [5]	MIC [6]	MIC50 [7]	% Inhibition versus Infected Controls, GM in BALF ([1]; 0.4 mg/mL)	% Inhibition versus Infected Controls, GM in serum ([1]; 0.4 mg/mL)	% Inhibition versus Infected Controls, Lung Fungal Load ([1]; 0.4 mg/mL)	also measured
Cc1nc(N2CCN(c3ccc(C(=O)Nc4ccc(F)cc4)cc3)CC2)ccc1OC[C@@H]1CO[C@@](Cn2cncn2)(c2ccc(F)cc2F)C1 [Example 3, 4-(4-(5-(((3R,5R)-5-((1H-1,2,4-Triazol-1-yl)Methyl)-5-(2,4-Difluorophenyl)Tetra Hydrofuran-3-yl)Methoxy)-6-Methylpyridin-2-yl)Piperazin-1-yl)-N-(4-Fluorophenyl) Benzamide]	0.0451 µM (≈ 0.0308 µg/mL)	> 14.6 µM	0.018 µM (≈ 0.0123 µg/mL)	0.033 µM (≈ 0.0226 µg/mL)	0.0276 µM (≈ 0.0189 µg/mL)	0.0517 µM (≈ 0.0353 µg/mL)				% Inhibition versus Infected Control, GM in BALF ([1]; 0.08 mg/mL): 95%; % Inhibition versus Infected Control, GM in serum ([1]; 0.08 mg/mL): 92%; % Inhibition versus Infected Control, Lung Fungal Load ([1]; 0.08 mg/mL): 98%; % Inhibition versus Infected Control, GM in BALF ([1]; 0.4 mg/mL): 86%; % Inhibition versus Infected Control, GM in serum ([1]; 0.4 mg/mL): 89%; % Inhibition versus Infected Control, Lung Fungal Load ([1]; 0.4 mg/mL): 96%
O=C(Nc1ccc(F)cc1)c1ccc(N2CCN(c3ccc(OC[C@@H]4CO[C@@](Cn5cncn5)(c5ccc(F)cc5F)C4)c(CO)c3)CC2)cc1 [Example 16, 4-(4-(4-(((3R, 5R)-5-((1H-1,2,4-triazol-1-yl)methyl)-5-(2,4-difluorophenyl)tetrahydrofuran-3-yl)methoxy)-3-hydroxymethylphenyl)piperazin-1-yl)-N-(4-fluorophenyl)benzamide]	0.00658 µM (≈ 0.0046 µg/mL)	> 14.3 µM	0.00512 µM (≈ 0.00358 µg/mL)	0.0335 µM (≈ 0.0234 µg/mL)	0.00926 µM (≈ 0.00647 µg/mL)	0.00082 µM (≈ 0.000573 µg/mL)				% Inhibition versus Infected Control, GM in BALF ([1]; 0.08 mg/mL): 76%; % Inhibition versus Infected Control, GM in serum ([1]; 0.08 mg/mL): 62%; % Inhibition versus Infected Control, Lung Fungal Load ([1]; 0.08 mg/mL): 91%; % Inhibition versus Infected Control, GM in BALF ([1]; 0.4 mg/mL): 88%; % Inhibition versus Infected Control, GM in serum ([1]; 0.4 mg/mL): 85%; % Inhibition versus Infected Control, Lung Fungal Load ([1]; 0.4 mg/mL): 96%
Cc1cc(N2CCN(c3ccc(C(=O)Nc4ccc(S(N)(=O)=O)cc4)cc3)CC2)ccc1OC[C@@H]1CO[C@@](Cn2cncn2)(c2ccc(F)cc2F)C1 [Example 19, 4-(4-(4-(((3R, 5R)-5-((1H-1,2,4-triazol-1-yl)methyl)-5-(2,4-difluorophenyl)tetrahydrofuran-3-yl)methoxy)-3-methylphenyl)piperazin-1-yl)-N-(4-sulfamoylphenyl)benzamide]	0.0227 µM (≈ 0.0169 µg/mL)	> 13.4 µM	0.0166 µM (≈ 0.0123 µg/mL)	0.0577 µM (≈ 0.0429 µg/mL)	0.0089 µM (≈ 0.00662 µg/mL)	0.0172 µM (≈ 0.0128 µg/mL)	16%	30%	62%	% Inhibition versus Infected Controls, GM in BALF ([1]; 2 mg/mL): 41%; % Inhibition versus Infected Controls, GM in serum ([1]; 2 mg/mL): 47%; % Inhibition versus Infected Controls, Lung Fungal Load ([1]; 2 mg/mL): 74%
N#Cc1cc(N2CCN(c3ccc(C(=O)Nc4ccc(F)cc4)cc3)CC2)ccc1OC[C@@H]1CO[C@@](Cn2cncn2)(c2ccc(F)cc2F)C1 [Example 4, 4-(4-(4-(((3R,5R)-5-((1H-1,2,4-Triazol-1-yl)Methyl)-5-(2,4-Difluorophenyl) Tetrahydrofuran-3-yl)Methoxy)-3-Cyanophenyl)Piperazin-1-yl)-N-(4-Fluorophenyl) Benzamide]	0.0383 µM (≈ 0.0266 µg/mL)	> 14.4 µM	0.00868 µM (≈ 0.00602 µg/mL)	0.0737 µM (≈ 0.0511 µg/mL)	0.0413 µM (≈ 0.0287 µg/mL)	0.00777 µM (≈ 0.00539 µg/mL)	84%	90%	85%	
Cc1cc(N2CCN(c3ccc(C(=O)Nc4ccc(C#N)cc4F)cc3)CC2)ccc1OC[C@@H]1CO[C@@](Cn2cncn2)(c2ccc(F)cc2F)C1 [Example 23, 4-(4-(4-(((3R, 5R)-5-((1H-1,2,4-triazol-1-yl)methyl)-5-(2,4-difluorophenyl)tetrahydrofuran-3-yl)methoxy)-3-methylphenyl)piperazin-1-yl)-N-(4-cyano-2-fluorophenyl)benzamide]	0.0443 µM (≈ 0.0314 µg/mL)	> 14.1 µM	0.0126 µM (≈ 0.00892 µg/mL)	0.0602 µM (≈ 0.0426 µg/mL)	0.0284 µM (≈ 0.0201 µg/mL)	0.00337 µM (≈ 0.00239 µg/mL)	71%	79%	56%	
CC[C@@H]([C@H](C)O)n1ncn(-c2ccc(N3CCN(c4ccc(OC[C@@H]5CO[C@@](Cn6cncn6)(c6ccc(F)cc6F)C5)cc4)CC3)cc2)c1=O [Posaconazole, reference compound]							20%	34%	44%	MIC ([4]; NCPF2010, broth microdilution assay, n = 3, read-out: MIC75 against Aspergillus fumigatus isolate NCPF2010): 0.0153 µM (≈ 0.0107 µg/mL); Median survival [8]: 6.5 days; No. of survivors on day 7 [8]: 0/6; Survivors on day 7 (%) [8]: 0%; MIC50 ([9]; 50% inhibition by visual inspection (CLSI)): 0.13 µg/mL (≈ 0.186 µM); MIC ([9]; 100% inhibition by visual inspection (CLSI), read-out: MIC100): 0.25 µg/mL (≈ 0.357 µM)
Cc1cc(N2CCN(c3ccc(C(=O)Nc4ccc(C#N)cn4)cc3)CC2)ccc1OC[C@@H]1CO[C@@](Cn2cncn2)(c2ccc(F)cc2F)C1 [Example 7]	0.00407 µM (≈ 0.00281 µg/mL)	> 14.5 µM	0.00586 µM (≈ 0.00405 µg/mL)	0.0419 µM (≈ 0.0289 µg/mL)	0.0141 µM (≈ 0.00974 µg/mL)	0.0125 µM (≈ 0.00863 µg/mL)				
N#Cc1ccc(NC(=O)c2ccc(N3CCN(c4ccc(OCC5CO[C@@](Cn6cncn6)(c6ccc(F)cc6F)C5)c(Cl)c4)CC3)cc2)cc1 (stereo in doubt) [Example 10, 4-(4-(4-(((3R,5R)-5-((1H-1,2,4-triazol-1-yl)methyl)-5-(2,4-difluorophenyl)tetrahydrofuran-3-yl)methoxy)-3-chlorophenyl)piperazin-1-yl)-N-(4-cyanophenyl)benzamide]	0.0295 µM (≈ 0.021 µg/mL)	> 14.1 µM	0.022 µM (≈ 0.0156 µg/mL)	0.0812 µM (≈ 0.0577 µg/mL)	0.00996 µM (≈ 0.00707 µg/mL)	0.0145 µM (≈ 0.0103 µg/mL)				
O=C(Nc1ccc(F)cn1)c1ccc(N2CCN(c3ccc(OCC4CO[C@@](Cn5cncn5)(c5ccc(F)cc5F)C4)c(F)c3)CC2)cc1 (stereo in doubt) [Example 40, 4-(4-(4-(((3R, 5R)-5-((1H-1,2,4-triazol-1-yl)methyl)-5-(2,4-difluorophenyl)tetrahydrofuran-3-yl)methoxy)-3-fluorophenyl)piperazin-1-yl)-N-(5-fluoropyridin-2-yl)benzamide]	0.0146 µM (≈ 0.01 µg/mL)	> 14.5 µM	0.0125 µM (≈ 0.0086 µg/mL)	0.0731 µM (≈ 0.0503 µg/mL)	0.024 µM (≈ 0.0165 µg/mL)	0.00687 µM (≈ 0.00472 µg/mL)				

— patent US20230295133A1, “PROCESS FOR PREPARING A COMPOUND USEFUL TO TREAT MYCOSES” (PULMOCIDE LIMITED, priority 2014, published 2023)
